Measured values published in patent US20150272934A1, “USE OF CSE INHIBITORS FOR THE TREATMENT OF CUTANEOUS INJURIES OR CONDITIONS AND SLEEP-RELATED BREATHING DISORDERS” (SOVA PHARMACEUTICALS, INC., priority 2012, published 2015).
Structures can show the parent of a compound that is named as a salt.

Tested on: hypoxic ventilatory response
Assay: Dose response to dl-propargylglycine (PAG) in the rat hypoxic ventilatory response (HVR) assay
Format: in vivo, Sprague Dawley rats
Settings: PAG 1 or 3 mg/kg IP; FiO2 21% to 10%
Method: Male Sprague Dawley rats weighing 343±17 g (Mean±SD); weight range 316-381 g, were obtained from Harlan Laboratories and maintained on a 12 hour light:dark cycle (6 am lights on) with food and water ad libitum.
DSI: Rat unrestrained whole body plethysmography chamber (˜8″ diameter plexiglass), ACQ 7700 Acquisition Interface, Validyne DP45 low range differential pressure transducers, Ponemah software.
dl-Propargyl Glycine (PAG) was obtained from Sigma (Cat #P7888; Lot#BCBD1765V) and solubilized in 0.9% NaCl. Drugs were prepared fresh on the day of use.
Test compounds were administered via the intraperitoneal route at a dose volume of 3 mUkg.
Animals were pre-habituated to the test environment on 3 separate 1-hour periods prior to the test day. Following administration of test compounds animals were placed inside the whole body plethysmography chamber. The animals were allowed to acclimate to the environment for 60 minutes while breathing a 21% O2 balance N2 gas mix. After acclimation, the following gas mix protocol was followed:
Cycles were designated to be the periods of both normoxia and hypoxia. Each experiment consisted of 3 cycles (or repeated sets) of the HVR to a normoxic-hypoxic shift. The cycles were 30 minutes in duration to allow for serial sampling from baseline and all 4 WBP test chambers. Each sampling period was of 4 minutes duration and was in a varying order but was always preceded by a 4 minute baseline. The sampling periods were calculated to allow for equilibration of the gas mixture in the WBP chamber. Switching of the multiplexer (MUX) line sampler system was achieved through use of a user defined program. The gas mixtures were likewise switched automatically using a user defined custom mix program and the Sable Systems/Alicat Multi Flow Controller utility.
Analysis of data was performed in GraphPad Prism (v5) using embedded 1-way Analysis of Variance (ANOVA) followed by Dunnett's or Tukey's MCT post hoc testing where appropriate. Dual data sets were analyzed using the Student's t-test. Bartlett's Equal Variance tests were performed on all data sets, however failure of equal variance was not considered to impinge the validity of the test.

Which “Increase in minute ventilation (VE) from normoxia to hypoxia” value does the source give for `C#CCC(N)C(=O)O` (racemic) [PAG, dl-Propargylglycine] here?
The value was “not”.

Same assay, conditions: PAG 10, 30 and 100 mg/kg; both normoxic and hypoxic conditions; p<0.05

Which VH2O does the source give for `C#CCC(N)C(=O)O` (racemic) [PAG, dl-Propargylglycine] here?
The VH2O was “significantly impacted”.

Same assay, conditions: PAG 10, 30 and 100 mg/kg; compared to saline, p<0.05

With `C#CCC(N)C(=O)O` (racemic) [PAG, dl-Propargylglycine] as the compound, how does the “VE at 10% FiO2” value read?
Its value is “significantly reduced”.

Same assay, conditions: PAG 10, 30 or 100 mg/kg IP; FiO2 21% to 10%

For `C#CCC(N)C(=O)O` (racemic) [PAG, dl-Propargylglycine], which “Increase in minute ventilation (VE) from normoxia to hypoxia” value is on record?
Its value is “blunted”.

Same assay, conditions: PAG 10 and 100 mg/kg; compared to saline, p<0.05

For `C#CCC(N)C(=O)O` (racemic) [PAG, dl-Propargylglycine], which “VE at an FiO2 of 21%” value is on record?
Its value is “reduced significantly”.

Same assay, conditions: PAG 30 and 100 mg/kg IP; p<0.05 versus vehicle

Which “Slope of the hypoxic ventilatory response (ΔVE, HVR)” value does the source give for `C#CCC(N)C(=O)O` (racemic) [PAG, dl-Propargylglycine] here?
Its value is “significantly reduced”.

Same assay, conditions: PAG below a dose of 10 mg/kg

With `C#CCC(N)C(=O)O` (racemic) [PAG, dl-Propargylglycine] as the compound, how does the “Slope of the hypoxic ventilatory response (ΔVE)” value read?
Its value is “no effect”.

Same assay, conditions: normoxic conditions; PAG 10 and 100 mg/kg; p<0.05

For `C#CCC(N)C(=O)O` (racemic) [PAG, dl-Propargylglycine], which VO2 is on record?
The VO2 was “significantly decreased”.

Same assay, conditions: rat, in vivo

Which VCO2 does the source give for `C#CCC(N)C(=O)O` (racemic) [PAG, dl-Propargylglycine] here?
The VCO2 was “no effect”.

Tested on: obstructive sleep apnea
Assay: not given
Settings: twelve patients; cited from earlier work

For `CN1CCN2c3ncccc3Cc3ccccc3C2C1` (stereo not shown) [mirtazapine], which “decrease in occurrence of apnea episodes” value is on record?
Its value is 50%.

And the “decrease in sleep disruptions” value?
Its value is 28%.

Target: human, mouse or rat recombinant CSE (UniProt P32929)
Assay: CSE In Vitro Assay
Settings: not given

For `CCN(N)c1nnn[nH]1` [Example 2-4], which IC50 is on record?
The IC50 was less than 10 µM.

For `CN(N)c1nnn(C)n1` [Example 2-29, 2-methyl-5-(1-methylhydrazinyl)-2H-tetrazole], which IC50 is on record?
The IC50 was greater than 100 µM.

Same assay, conditions: […]; species of enzyme not given

Which IC50 does the source give for `NCCCN(N)c1nnn[nH]1` [Example 2-12, 3-(1-(1H-tetrazol-5-yl)hydrazinyl)propan-1-amine dihydrochloride] here?
The IC50 was less than 10 µM.

For `COCCN(N)c1nnn[nH]1` [Example 2-6], which IC50 is on record?
The IC50 was 10 to 100 µM.

For `N#CCC(N)c1nnn[nH]1` (stereo not shown) [Example 1-1, 3-amino-3-(1H-tetrazol-5-yl)propionitrile dihydrochloride], which IC50 is on record?
The IC50 was greater than 100 µM.

Same assay, conditions: recombinant CSE 20 ug/ml, 50 uM PLP, DL-homocysteine substrate, 3 hours 37° C.; species of enzyme not given

Which IC50 does the source give for `C#CC[C@H](N)c1ncn[nH]1` [Example 1-4, (S)-1-(1H-1,2,4-triazol-5-yl)but-3-yn-1-amine hydrochloride] here?
Its IC50 is less than 10 µM.

Which IC50 does the source give for `CNCCCN(N)c1nnn[nH]1` [Example 2-15] here?
The IC50 was less than 10 µM.

For `CN(N)c1nnn[nH]1` [Example 2-11], which IC50 is on record?
Its IC50 is less than 10 µM.

With `C#CC[C@H](N)c1nc(N)n[nH]1` [Example 1-6, (S)-5-(1-aminobut-3-ynyl)-1H-1,2,4-triazol-3-amine hydrochloride] as the compound, how does the IC50 read?
The IC50 was greater than 100 µM.

For `Clc1ccc(/C=N/Nc2nnn[nH]2)cc1` [Example 2-20], which IC50 is on record?
The IC50 was less than 10 µM.

For `C#CC[C@H](N)C(=O)NS(C)(=O)=O` [Example 1-9, (S)-2-amino-N-(methylsulfonyl)pent-4-ynamide hydrochloride], which IC50 is on record?
The IC50 was 10 to 100 µM.

Which IC50 does the source give for `CC(C)=NN(C)c1nnn[nH]1` [Example 2-28, 5-(1-methyl-2-(propan-2-ylidene)hydrazinyl)-1H-tetrazole] here?
The IC50 was less than 10 µM.

For `C1CCC(=NNc2nnn[nH]2)C1` [Example 2-24], which IC50 is on record?
The IC50 was less than 10 µM.

For `CN(C)CCN(N)c1nnn[nH]1` [Example 2-2, 2-(1-(1H-tetrazol-5-yl)hydrazinyl)-N,N-dimethylethanamine], which IC50 is on record?
Its IC50 is greater than 100 µM.

For `NN(Cc1ccccc1)c1nnn[nH]1` [Example 2-8], which IC50 is on record?
The IC50 was greater than 100 µM.

Which IC50 does the source give for `CCN(N)C(=O)Nc1nnn[nH]1` [Example 2-34, 1-ethyl-N-(1H-tetrazol-5-yl)hydrazinecarboxamide] here?
Its IC50 is greater than 100 µM.

Which IC50 does the source give for `C#CCN(N)c1nnn[nH]1` [Example 2-3, 5-(1-(prop-2-ynyl)hydrazinyl)-1H-tetrazole] here?
The IC50 was less than 10 µM.

For `C#CC[C@H](N)c1nnn[nH]1` [Example 1-2, (S)-1-(1H-tetrazol-5-yl)-but-3-ynylamine hydrochloride], which IC50 is on record?
Its IC50 is less than 10 µM.

With `C#CC[C@H](N)c1noc(=O)[nH]1` [Example 1-3, (S)-3-(1-aminobut-3-ynyl)-1,2,4-oxadiazol-5(4H)-one hydrochloride] as the compound, how does the IC50 read?
The IC50 was less than 10 µM.

Which IC50 does the source give for `NCCN(N)c1nnn[nH]1` [Example 2-13] here?
The IC50 was less than 10 µM.

With `CCN(N)c1ncn[nH]1` [Example 2-31, 5-(1-ethylhydrazinyl)-1H-1,2,4-triazole] as the compound, how does the IC50 read?
The IC50 was greater than 100 µM.

With `CC(C)CN(N)c1nnn[nH]1` [Example 2-10] as the compound, how does the IC50 read?
Its IC50 is greater than 100 µM.

Which IC50 does the source give for `Clc1ccc(/C=N/Nc2nnn[nH]2)c(Cl)c1` [Example 2-19] here?
Its IC50 is greater than 100 µM.

For `C#CC[C@H](N)C(=O)Nc1nn[nH]n1` [Example 1-7, (S)-2-amino-N-(2H-tetrazol-5-yl)pent-4-ynamide], which IC50 is on record?
Its IC50 is 10 to 100 µM.

Which IC50 does the source give for `C#CC[C@H](N)C(=O)NS(=O)(=O)c1ccccc1` [Example 1-8, (S)-2-amino-N-(phenylsulfonyl)pent-4-ynamide hydrochloride] here?
Its IC50 is 10 to 100 µM.

With `COCCCN(N)c1nnn[nH]1` [Example 2-5] as the compound, how does the IC50 read?
The IC50 was greater than 100 µM.

With `CNCCN(N)c1nnn[nH]1` [Example 2-14] as the compound, how does the IC50 read?
The IC50 was 10 to 100 µM.

Which IC50 does the source give for `C1CCC(=NNc2nnn[nH]2)CC1` [Example 2-23] here?
The IC50 was less than 10 µM.

With `CCCN(N)c1nnn[nH]1` [Example 2-7] as the compound, how does the IC50 read?
Its IC50 is 10 to 100 µM.

With `C#CC[C@H](N)c1nc(C(F)(F)F)n[nH]1` [Example 1-5, (S)-1-(3-(trifluoromethyl)-1H-1,2,4-triazol-5-yl)but-3-yn-1-amine hydrochloride] as the compound, how does the IC50 read?
The IC50 was greater than 100 µM.

With `C(=N\Nc1nnn[nH]1)/c1ccccc1` [Example 2-17, (E)-5-(2-benzylidenehydrazinyl)-1H-tetrazole] as the compound, how does the IC50 read?
The IC50 was 10 to 100 µM.

For `CC(C)=NNc1nnn[nH]1` [Example 2-21], which IC50 is on record?
Its IC50 is less than 10 µM.

Which IC50 does the source give for `CC(C)N(N)c1nnn[nH]1` [Example 2-9] here?
The IC50 was greater than 100 µM.

With `CN(C)c1ccc(/C=N/N(C)c2nnn[nH]2)cc1` [Example 2-27, (E)-N,N-dimethyl-4-((2-methyl-2-(1H-tetrazol-5-yl)hydrazono)methyl)aniline] as the compound, how does the IC50 read?
Its IC50 is 10 to 100 µM.

With `CCN(N)C(=O)c1nnn[nH]1` [Example 2-33, N-ethyl-1H-tetrazole-5-carbohydrazide] as the compound, how does the IC50 read?
Its IC50 is greater than 100 µM.

For `CN(C)c1ccc(C(=O)C/C=N/Nc2nnn[nH]2)cc1` [Example 2-26, (E)-3-(2-(1H-tetrazol-5-yl)hydrazono)-1-(4-(dimethylamino)phenyl)propan-1-one], which IC50 is on record?
Its IC50 is less than 10 µM.

With `CN(C)CCCN(N)c1nnn[nH]1` [Example 2-1, 3-(1-(1H-tetrazol-5-yl)hydrazinyl)-N,N-dimethylpropan-1-amine] as the compound, how does the IC50 read?
Its IC50 is 10 to 100 µM.

Which IC50 does the source give for `CC/C(C)=N/Nc1nnn[nH]1` [Example 2-25] here?
Its IC50 is less than 10 µM.

With `CCN(N)C(=O)NS(=O)(=O)c1ccccc1` [Example 2-35, 1-ethyl-N-(phenylsulfonyl)hydrazinecarboxamide] as the compound, how does the IC50 read?
The IC50 was greater than 100 µM.

Which IC50 does the source give for `C/C(=N\Nc1nnn[nH]1)c1ccc(N(C)C)cc1` [Example 2-22] here?
The IC50 was less than 10 µM.

Which IC50 does the source give for `CN(C)c1ccc(/C=N/Nc2nnn[nH]2)cc1` [Example 2-18] here?
Its IC50 is 10 to 100 µM.

Which IC50 does the source give for `CN(N)c1noc(=O)[nH]1` [Example 2-32, 3-(1-methylhydrazinyl)-1,2,4-oxadiazol-5(4H)-one hydrochloride] here?
The IC50 was 10 to 100 µM.

Tested on: deep partial thickness cutaneous burn injury, zone of stasis
Assay: Comb burn model for cutaneous burn
Format: in vivo, Sprague-Dawley rats
Settings: L-propargylglycine 100 mg/kg IP Day 0; Compound 1 20 mg/kg PO once daily; 6-day time course; versus control animals

With `CN(N)c1nnn[nH]1` [Compound 1, 5-(1-methylhydrazinyl)-1H-tetrazole] as the compound, how does the “Viability of zones of stasis/interspaces on gross examination (burn progression)” value read?
Its value is “maintain viability”.

Same assay, conditions: within 48-72 hours; less injured versus worse/the same scale

For `CN(N)c1nnn[nH]1` [Compound 1, 5-(1-methylhydrazinyl)-1H-tetrazole], which “Blinded photo grading of treated interspaces versus control interspaces” value is on record?
The value was “less injured than controls”.
